According to patent US9611252B2 (LifeSci Pharmaceuticals, Inc., priority 2013, dated 2017):

How the values were obtained:
[1] = molecular target: human Plasma Kallikrein (Homo sapiens (Human), UniProt P03952); test: In vitro enzyme inhibition of human plasma kallikrein (PFR-AMC cleavage); type: biochemical; conditions: human plasma kallikrein, Pro-Phe-Arg-AMC substrate, 37° C.; read-out: hPK IC50
Summary of the method: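 Compound pre-incubated with human plasma kallikrein 5 min at 37° C in 50 mM Tris-HCl pH 7.5, 150 mM NaCl, 0.01% Triton X-100. Reaction started with PFR-AMC, cleavage read kinetically at 37° C every 43 s for 1 h.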

[2] = molecular target: kallikrein (Homo sapiens (Human), UniProt P03952); test: In vitro cellular assay (contact assay): kallikrein activity in ellagic acid-activated human plasma, substrate Z-FR-2-AMC; type: biochemical; conditions: human plasma activated with ellagic acid, Z-FR-2-AMC substrate, 37° C.; read-out: Contact Assay EC50
Description: The ability of the compounds disclosed herein to inhibit cellular kallikrein activity was quantified and the respective EC50 value was determined.
All dilutions were prepared in an assay buffer comprising 50 mM Tris-HCl pH 7.2, 150 mM NaCl, and 0.01% Triton X-100.
The ten solutions of the test compounds, prepared by serial dilution, were further diluted 50-fold in the assay buffer.
Human plasma is thawed on ice and centrifuged for 15 min at 4° C. to remove platelets. A 1 mM stock solution of ellagic acid is diluted to 8 μM and mixed with human plasma, after removing platelets, at a ratio of 1:0.8.
A 22.5 μL volume of the final mixture of human plasma and ellagic acid was added to a 96-well microwell plate and the plate was incubated for 15 min at 37° C.
The CINH inhibitor at various concentrations, prepared by serial dilutions as described above, were added to the inhibitor control wells. […] Each CINH concentration is tested in duplicates.
The test compounds at various concentrations, also prepared by serial dilutions as described above, are added to the test wells. […] Each test compound concentration was tested in duplicates.
In addition to the inhibitor control and test wells, the 96 well assay plate includes positive control wells which contained the mixture of human plasma and ellagic acid without C1NH inhibitor or test compounds, and background wells which contained neither the mixture of human plasma and ellagic acid nor the test compounds. The total volume of liquid in positive control and background wells was brought up to 35 μL, using the assay buffer.
The assay plate containing C1NH inhibitors and test compounds mixed with human plasma and ellagic acid and appropriate controls was incubated at 37° C. for 5 min. […] The reagents were mixed well by shaking the plate gently for 30 sec.
The enzyme reaction was quantified by immediate kinetic reading of the assay plate using excitation/emission wavelengths of 330 nm/440 nm respectively. Fluorescence intensity was recorded for 60 min, using a time interval of 43 sec.
The inhibition activity of the test compounds were evaluated using the IC50 values, calculated according to the dose-response curve of the test compounds, fitted using the “log(inhibitor)-response (variable slope)” equation in GraphPadPrism software (GraphPad Software, Inc.).
The percentage inhibition was calculated using the following equation:
[formula] where, Mean(BG) is the average value of the fluorescence intensity of the background wells and Mean(PC) is the average value of the fluorescence intensity of the positive control wells.
Table 4 provides the EC50 values of various compounds disclosed herein.

Chain of kallikrein (P03952 20-638): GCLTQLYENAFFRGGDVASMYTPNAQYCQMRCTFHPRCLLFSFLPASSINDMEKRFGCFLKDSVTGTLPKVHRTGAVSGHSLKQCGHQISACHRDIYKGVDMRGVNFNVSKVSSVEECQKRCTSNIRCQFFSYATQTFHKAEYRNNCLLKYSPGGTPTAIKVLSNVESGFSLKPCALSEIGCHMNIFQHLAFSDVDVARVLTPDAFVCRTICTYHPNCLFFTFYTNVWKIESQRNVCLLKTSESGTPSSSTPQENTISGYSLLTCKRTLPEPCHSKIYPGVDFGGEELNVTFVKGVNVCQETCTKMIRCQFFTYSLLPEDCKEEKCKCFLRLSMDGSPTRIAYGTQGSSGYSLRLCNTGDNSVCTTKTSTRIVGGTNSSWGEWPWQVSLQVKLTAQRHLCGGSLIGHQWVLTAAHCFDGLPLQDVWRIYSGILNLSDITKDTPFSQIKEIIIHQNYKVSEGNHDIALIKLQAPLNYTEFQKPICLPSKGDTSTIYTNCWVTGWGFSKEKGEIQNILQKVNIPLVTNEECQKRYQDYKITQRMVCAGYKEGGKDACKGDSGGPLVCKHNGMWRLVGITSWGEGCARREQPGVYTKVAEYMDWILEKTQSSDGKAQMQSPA
Chain of human Plasma Kallikrein (P03952 20-638): as above

IC50 [1] [nM]	EC50 [2] [nM]	SMILES
< 100	< 100	Cc1cnc2c(C(N)=O)cc(Cc3cc(C(=O)NCc4ccc5c(N)nccc5c4)ccn3)cc2c1 [Example 79, 6-((4-(((1-aminoisoquinolin-6-yl)methyl)carbamoyl)pyridin-2-yl)methyl)-3-methylquinoline-8-carboxamide]
< 100	< 100	Cc1cnc2c(C#N)cc(Cc3cc(C(=O)NCc4ccc5c(N)nccc5c4)ccn3)cc2c1 [Example 71, N-((1-aminoisoquinolin-6-yl)methyl)-2-((8-cyano-3-methylquinolin-6-yl)methyl)isonicotinamide]
< 100	< 100	Cc1cnc2c(C(N)=O)cc(Cc3cc(C(=O)NCc4cnc5[nH]cc(Cl)c5c4)ccn3)cc2c1 [Example 80, 6-((4-(((3-chloro-1H-pyrrolo[2,3-b]pyridin-5-yl)methyl)carbamoyl)pyridin-2-yl)methyl)-3-methylquinoline-8-carboxamide]
< 100	100 to 1000	Cc1cnc2c(C(N)=O)cc(Cc3cc(C(=O)NCc4ccc5[nH]cc(Cl)c5c4F)ccn3)cc2c1 [Example 81, 6-((4-(((3-chloro-4-fluoro-1H-indol-5-yl)methyl)carbamoyl)pyridin-2-yl)methyl)-3-methylquinoline-8-carboxamide]
< 100	< 100	Cc1ccc2cc(Cc3cc(C(=O)NCc4c(C)cc(N)nc4C)ccn3)ccc2n1 [Example 113, N-((6-amino-2,4-dimethylpyridin-3-yl)methyl)-2-((2-methylquinolin-6-yl)methyl)isonicotinamide]
< 100	< 100	Cc1nc(N)ccc1CNC(=O)c1ccnc(Cc2cc(F)c3ncc(Cl)cc3c2)c1 [Example 91, N-(6-amino-2-methyl-pyridin-3-ylmethyl)-2-(3-chloro-8-fluoro-quinolin-6-ylmethyl)-isonicotinamide]
< 100	< 100	Cc1cc2cc(Cc3cc(C(=O)NCc4c(C)cc(N)nc4C)ccn3)ccc2cn1 [Example 145, N-((6-amino-2,4-dimethylpyridin-3-yl)methyl)-2-((3-methylisoquinolin-6-yl)methyl)isonicotinamide]
< 100	< 100	Cc1cnc2c(C(=O)O)cc(Cc3cc(C(=O)NCc4c(C)cc(N)nc4C)ccn3)cc2c1 [Example 84, 6-((4-(((6-amino-2,4-dimethylpyridin-3-yl)methyl)carbamoyl)pyridin-2-yl)methyl)-3-methylquinoline-8-carboxylic acid]

Further lines, the compound ahead of its results:

SMILES	IC50 [1] [nM]	EC50 [2] [nM]
NC(=O)c1cc(Cc2cc(C(=O)NCc3cc4cc[nH]c4cc3F)ccn2)cc2cc(Cl)cnc12 [Example 66, 3-chloro-6-((4-(((6-fluoro-1H-indol-5-yl)methyl)carbamoyl)pyridin-2-yl)methyl)quinoline-8-carboxamide]	< 100	100 to 1000
Cc1cnc2c(C#N)cc(Cc3cc(C(=O)NCc4c(C)cc(N)nc4C)ccn3)cc2c1 [Example 70, N-((6-amino-2,4-dimethylpyridin-3-yl)methyl)-2-((8-cyano-3-methylquinolin-6-yl)methyl)isonicotinamide]	< 100	< 100
Cc1nc(N)ccc1CNC(=O)c1ccnc(Cc2cc(S(C)(=O)=O)c3ncc(Cl)cc3c2)c1 [Example 69, N-((6-amino-2-methylpyridin-3-yl)methyl)-2-((3-chloro-8-(methylsulfonyl)quinolin-6-yl)methyl)isonicotinamide]	< 100	< 100
CS(=O)(=O)c1cc(Cc2cc(C(=O)NCc3cc4c(Cl)c[nH]c4cc3F)ccn2)cc2cc(Cl)cnc12 [Example 68, N-((3-chloro-6-fluoro-1H-indol-5-yl)methyl)-2-((3-chloro-8-(methylsulfonyl)quinolin-6-yl)methyl)isonicotinamide]	< 100	< 100
Cc1cnc2c(S(C)(=O)=O)cc(Cc3cc(C(=O)NCc4c(C)cc(N)nc4C)ccn3)cc2c1 [Example 15, N-((6-amino-2,4-dimethylpyridin-3-yl)methyl)-2-((3-methyl-8-(methylsulfonyl)quinolin-6-yl)methyl)isonicotinamide]	< 100	< 100
Cc1cnc2c(S(C)(=O)=O)cc(Cc3cc(C(=O)NCc4ccc5c(N)nccc5c4)ccn3)cc2c1 [Example 16, N-((1-aminoisoquinolin-6-yl)methyl)-2-((3-methyl-8-(methylsulfonyl)quinolin-6-yl)methyl)isonicotinamide]	< 100	< 100
NC(=O)c1cc(Cc2cc(C(=O)NCc3ccc4c(N)nccc4c3)ccn2)cc2cc(Cl)cnc12 [Example 64, 6-((4-(((1-aminoisoquinolin-6-yl)methyl)carbamoyl)pyridin-2-yl)methyl)-3-chloroquinoline-8-carboxamide]	< 100	< 100
Cc1cnc2c(C#N)cc(Cc3cc(C(=O)NCc4cnc5[nH]cc(Cl)c5c4)ccn3)cc2c1 [Example 73, N-((3-chloro-1H-pyrrolo[2,3-b]pyridin-5-yl)methyl)-2-((8-cyano-3-methylquinolin-6-yl)methyl)isonicotinamide]	< 100	100 to 1000
O=C(NCc1ccc2[nH]cc(Cl)c2c1F)c1ccnc(Cc2ccc3ncc(Cl)cc3c2)c1 [Example 40, N-(3-Chloro-4-fluoro-1H-indol-5-ylmethyl)-2-(3-chloro-quinolin-6-ylmethyl)-isonicotinamide]	< 100	100 to 1000
Cc1cnc2c(S(C)(=O)=O)cc(Cc3cc(C(=O)NCc4cc5c(Cl)c[nH]c5cc4F)ccn3)cc2c1 [Example 17, N-((3-chloro-6-fluoro-1H-indol-5-yl)methyl)-2-((3-methyl-8-(methylsulfonyl)quinolin-6-yl)methyl)isonicotinamide]	< 100	< 100
O=C(NCc1cnc2[nH]cc(Cl)c2c1)c1ccnc(Cc2ccc3ncc(Cl)cc3c2)c1 [Example 38, N-(3-Chloro-1H-pyrrolo[2,3-b]pyridin-5-ylmethyl)-2-(3-chloro-quinolin-6-ylmethyl)-isonicotinamide]	< 100	100 to 1000
